Measured values from PubChem BioAssay (NCI).
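A five-concentration, 48-hour dose response in 96-well plates underlies each endpoint, interpolated linearly between surrounding concentrations. At the GI50, growth is halved. TGI marks complete inhibition of growth.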

Assays:
Assay in all cases: NCI-60 cell line screen, 48 h
[1] = test system: DU-145 prostate
[2] = test system: NCI-H226 lung
[3] = test system: RPMI-8226 leukemia
[4] = test system: SF-295 CNS
[5] = test system: MCF7 breast
[6] = test system: SF-268 CNS
[7] = test system: UACC-257 melanoma
[8] = test system: SK-MEL-2 melanoma
[9] = test system: T-47D breast
[10] = test system: UO-31 renal
[11] = test system: OVCAR-8 ovarian
[12] = test system: MOLT-4 leukemia
[13] = test system: UACC-62 melanoma
[14] = test system: IGROV1 ovarian
[15] = test system: TK-10 renal
[16] = test system: BT-549 breast
[17] = test system: HCT-116 colon
[18] = test system: MALME-3M melanoma
[19] = test system: HS 578T breast
[20] = test system: COLO 205 colon
[21] = test system: CCRF-CEM leukemia
[22] = test system: EKVX NSCLC
[23] = test system: NCI-H522 lung
[24] = test system: 786-0 renal
[25] = test system: NCI-H460 lung
[26] = test system: ACHN renal
[27] = test system: SK-OV-3 ovarian
[28] = test system: SF-539 CNS
[29] = test system: RXF 393 renal
[30] = test system: SW-620 colon
[31] = test system: KM12 colon
[32] = test system: K-562 leukemia
[33] = test system: HT29 colon
[34] = test system: NCI-H23 lung
[35] = test system: HOP-92 NSCLC
[36] = test system: SK-MEL-5 melanoma
[37] = test system: U251 CNS
[38] = test system: MDA-MB-435
[39] = test system: NCI/ADR-RES ovarian
[40] = test system: LOX IMVI melanoma
[41] = test system: CAKI-1 renal
[42] = test system: MDA-MB-231 breast
[43] = test system: SR leukemia
[44] = test system: SNB-75 CNS
[45] = test system: HOP-62 NSCLC
[46] = test system: A549 NSCLC
[47] = test system: SNB-19 CNS
[48] = test system: HCT-15 colon
[49] = test system: SN12C renal
[50] = test system: PC-3 prostate
[51] = test system: M14 melanoma
[52] = test system: OVCAR-4 ovarian
[53] = test system: OVCAR-3 ovarian
[54] = test system: OVCAR-5 ovarian
[55] = test system: SK-MEL-28 melanoma
[56] = test system: A498 renal
[57] = test system: HL-60(TB) leukemia
[58] = test system: HCC-2998 colon

SMILES: C=C1C[C@H](O)[C@H]2C(C[Se]c3ccccc3)C(=O)O[C@@H]2[C@H]2[C@H](C)C(O)C[C@@H]12 (stereo partly drawn)
- TGI [1]: > 100 µM
- TGI [2]: 83.9 µM
- TGI [3]: 98 µM
- TGI [4]: > 100 µM
- TGI [5]: > 100 µM
- TGI [6]: > 100 µM
- TGI [7]: > 100 µM
- TGI [8]: > 100 µM
- TGI [9]: > 100 µM
- TGI [10]: 63.7 µM
- TGI [11]: > 100 µM
- TGI [12]: > 100 µM
- TGI [13]: 64.1 µM
- TGI [14]: 93.1 µM
- TGI [15]: > 100 µM
- TGI [16]: 98.4 µM
- TGI [17]: 56.4 µM
- TGI [18]: > 100 µM
- TGI [19]: > 100 µM
- TGI [20]: > 100 µM
- TGI [21]: > 100 µM
- TGI [22]: > 100 µM
- TGI [23]: 38.1 µM
- TGI [24]: 99.3 µM
- TGI [25]: > 100 µM
- TGI [26]: 76.3 µM
- TGI [27]: > 100 µM
- TGI [28]: > 100 µM
- TGI [29]: 50.2 µM
- TGI [30]: 94.8 µM
- TGI [31]: > 100 µM
- TGI [32]: > 100 µM
- TGI [33]: > 100 µM
- TGI [34]: 40.7 µM
- TGI [35]: > 100 µM
- TGI [36]: > 100 µM
- TGI [37]: 30.8 µM
- TGI [38]: > 100 µM
- TGI [39]: 51.6 µM
- TGI [40]: 51.4 µM
- TGI [41]: > 100 µM
- TGI [42]: 38.1 µM
- TGI [43]: > 100 µM
- TGI [44]: > 100 µM
- TGI [45]: > 100 µM
- TGI [46]: > 100 µM
- TGI [47]: > 100 µM
- TGI [48]: 33.9 µM
- TGI [49]: 65 µM
- TGI [50]: > 100 µM
- TGI [51]: > 100 µM
- TGI [52]: > 100 µM
- TGI [53]: 98.6 µM
- TGI [54]: 55 µM
- TGI [55]: > 100 µM

SMILES: CO/N=C(\COc1ccc2c(=O)cc(-c3ccccc3)oc2c1)c1ccc(F)cc1
- GI50 [1]: 76.1 µM
- TGI [1]: > 100 µM
- GI50 [2]: > 100 µM
- TGI [2]: > 100 µM
- GI50 [3]: > 100 µM
- TGI [3]: > 100 µM
- GI50 [4]: 25.8 µM
- TGI [4]: 56.9 µM
- GI50 [7]: 32.1 µM
- TGI [7]: > 100 µM
- GI50 [8]: 24 µM
- TGI [8]: 60.4 µM
- GI50 [9]: 68.4 µM
- TGI [9]: > 100 µM
- GI50 [10]: > 100 µM
- TGI [10]: > 100 µM
- GI50 [11]: 40.7 µM
- TGI [11]: > 100 µM
- GI50 [13]: 29.8 µM
- TGI [13]: > 100 µM
- GI50 [14]: 21.9 µM
- TGI [14]: 66.6 µM
- GI50 [56]: > 100 µM
- TGI [56]: > 100 µM
- GI50 [15]: 41.7 µM
- TGI [15]: > 100 µM
- GI50 [16]: > 100 µM
- TGI [16]: > 100 µM
- GI50 [17]: 28.4 µM
- TGI [17]: > 100 µM
- GI50 [18]: 19.3 µM
- TGI [18]: 45.9 µM
- GI50 [19]: 51.5 µM
- TGI [19]: > 100 µM
- GI50 [20]: > 100 µM
- TGI [20]: > 100 µM
- GI50 [21]: > 100 µM
- TGI [21]: > 100 µM
- GI50 [22]: 74.4 µM
- TGI [22]: > 100 µM
- GI50 [23]: 23.1 µM
- TGI [23]: 62.3 µM
- GI50 [24]: 20.7 µM
- TGI [24]: 49.8 µM
- GI50 [57]: 21 µM
- TGI [57]: > 100 µM
- GI50 [58]: 32.3 µM
- TGI [58]: 96 µM
- GI50 [26]: 34 µM
- TGI [26]: > 100 µM
- GI50 [27]: 41.4 µM
- TGI [27]: > 100 µM
- GI50 [28]: 94.8 µM
- TGI [28]: > 100 µM
- GI50 [29]: 27.7 µM
- TGI [29]: 87.5 µM
- GI50 [30]: 42.6 µM
- TGI [30]: > 100 µM
- GI50 [31]: 53.8 µM
- TGI [31]: > 100 µM
- GI50 [32]: 36.5 µM
- TGI [32]: > 100 µM
- GI50 [33]: 33.6 µM
- TGI [33]: > 100 µM
- GI50 [34]: 92.7 µM
- TGI [34]: > 100 µM
- GI50 [36]: 35.1 µM
- TGI [36]: > 100 µM
- GI50 [37]: 29.2 µM
- TGI [37]: 88.5 µM
- GI50 [38]: 10.3 µM
- TGI [38]: 37.1 µM
- GI50 [39]: 34.4 µM
- TGI [39]: > 100 µM
- GI50 [40]: 67.5 µM
- TGI [40]: > 100 µM
- GI50 [41]: 22.7 µM
- TGI [41]: 65.6 µM
- GI50 [42]: 27.7 µM
- TGI [42]: 64 µM
- GI50 [43]: 14.5 µM
- TGI [43]: 47.2 µM
- GI50 [44]: 24.1 µM
- TGI [44]: 55 µM
- GI50 [45]: 21 µM
- TGI [45]: 50.5 µM
- GI50 [46]: 30.6 µM
- TGI [46]: > 100 µM
- GI50 [48]: 63.9 µM
- TGI [48]: > 100 µM
- GI50 [49]: 36.2 µM
- TGI [49]: > 100 µM
- GI50 [50]: 37.9 µM
- TGI [50]: > 100 µM
- GI50 [51]: 36.1 µM
- TGI [51]: > 100 µM
- GI50 [52]: 58.2 µM
- TGI [52]: > 100 µM
- GI50 [53]: 14 µM
- TGI [53]: 47.7 µM
- GI50 [54]: 42.1 µM
- TGI [54]: > 100 µM
- GI50 [55]: 89.4 µM
- TGI [55]: > 100 µM

SMILES: COc1cc(C(=O)/C=C/c2cc(-c3cc(OC)c(OC)c(OC)c3)n[nH]2)cc(OC)c1OC
- GI50 [3]: 0.318 µM
- TGI [3]: 2.06 µM
- GI50 [5]: 0.646 µM
- TGI [5]: 2.07 µM
- GI50 [6]: 1.94 µM
- TGI [6]: 4.58 µM
- GI50 [7]: 1.57 µM
- TGI [7]: 2.99 µM
- GI50 [8]: 1.96 µM
- TGI [8]: 4.04 µM
- GI50 [9]: 1.13 µM
- TGI [9]: 2.57 µM
- GI50 [10]: 1.19 µM
- TGI [10]: 2.48 µM
- GI50 [11]: 1.58 µM
- TGI [11]: 3.28 µM
- GI50 [12]: 2.32 µM
- TGI [12]: 8.95 µM
- GI50 [13]: 1.78 µM
- TGI [13]: 3.68 µM
- GI50 [14]: 3.14 µM
- TGI [14]: 10.2 µM
- GI50 [56]: 1.61 µM
- TGI [56]: 3.59 µM
- GI50 [15]: 1.46 µM
- TGI [15]: 2.8 µM
- GI50 [16]: 1.57 µM
- TGI [16]: 2.96 µM
- GI50 [17]: 1.31 µM
- TGI [17]: 2.59 µM
- GI50 [18]: 1.86 µM
- TGI [18]: 4.09 µM
- GI50 [19]: 2.68 µM
- TGI [19]: 53.9 µM
- GI50 [20]: 1.75 µM
- TGI [20]: 3.13 µM
- GI50 [23]: 0.521 µM
- TGI [23]: 1.7 µM
- GI50 [24]: 1.56 µM
- TGI [24]: 3.25 µM
- GI50 [57]: 1.93 µM
- TGI [57]: 5.52 µM
- GI50 [25]: 1.89 µM
- TGI [25]: 4.33 µM
- GI50 [58]: 1.83 µM
- TGI [58]: 3.39 µM
- GI50 [26]: 1.62 µM
- TGI [26]: 3.01 µM
- GI50 [27]: 3.2 µM
- TGI [27]: 11.1 µM
- GI50 [28]: 1.29 µM
- TGI [28]: 2.83 µM
- GI50 [29]: 1.26 µM
- TGI [29]: 2.67 µM
- GI50 [30]: 1.59 µM
- TGI [30]: 3.08 µM
- GI50 [31]: 1.49 µM
- TGI [31]: 2.93 µM
- GI50 [32]: 2.96 µM
- TGI [32]: > 100 µM
- GI50 [33]: 1.79 µM
- TGI [33]: 3.37 µM
- GI50 [34]: 3.04 µM
- TGI [34]: 9.9 µM
- GI50 [35]: 0.186 µM
- TGI [35]: 1.02 µM
- GI50 [36]: 1.57 µM
- TGI [36]: 2.94 µM
- GI50 [37]: 1.54 µM
- TGI [37]: 2.96 µM
- GI50 [38]: 1.49 µM
- TGI [38]: 2.95 µM
- GI50 [39]: 3.47 µM
- TGI [39]: 21.4 µM
- GI50 [40]: 1.52 µM
- TGI [40]: 2.91 µM
- GI50 [41]: 2.58 µM
- TGI [41]: 10.9 µM
- GI50 [42]: 1.52 µM
- TGI [42]: 3.8 µM
- GI50 [43]: 0.398 µM
- TGI [43]: > 100 µM
- GI50 [45]: 1.46 µM
- TGI [45]: 2.89 µM
- GI50 [46]: 2.72 µM
- TGI [46]: 12.1 µM
- GI50 [47]: 1.66 µM
- TGI [47]: 3.69 µM
- GI50 [48]: 1.5 µM
- TGI [48]: 3.29 µM
- GI50 [49]: 1.47 µM
- TGI [49]: 2.97 µM
- GI50 [50]: 1.47 µM
- TGI [50]: 3.29 µM
- GI50 [51]: 1.79 µM
- TGI [51]: 3.32 µM
- GI50 [52]: 1.45 µM
- TGI [52]: 2.76 µM
- GI50 [53]: 1.75 µM
- TGI [53]: 3.18 µM
- GI50 [54]: 1.64 µM
- TGI [54]: 3.12 µM
- GI50 [55]: 1.82 µM
- TGI [55]: 3.33 µM
